Measurements taken from patent publication US20110178118A1, “PALONOSETRON FOR THE TREATMENT OF CHEMOTHERAPY INDUCED EMESES” (priority 2002, published 2011).
Like-named read-outs stand apart in the source and are kept apart here. Marks after values point to notes of the source that are not given here.

What was measured:
[1] = system: Mechlorethamine-Induced Emesis; type: in vivo, dogs; conditions: for Emetic Episodes (mean ± SD): 2 hours prior to mechlorethamine 0.4 mg/kg IV, observed 5 hours
[2] = in vivo
Method: (§1) A randomized, double-blind, multicenter, dose-ranging Phase II trial was performed to identify the dose response relationship among single I.V. doses of palonosetron. Patients receiving highly emetogenic chemotherapy including cyclophosphamide (>1100 mg/m2) and cisplatin (>70 mg/m2), commonly associated with delayed emesis, were assigned to one of five dose groups of a single I.V. administration of palonosetron. Palonosetron was administered alone (without dexamethasone) as a 30 second intravenous injection, 30 minutes prior to chemotherapy administration. The primary endpoint was 24-hour complete responses (no emesis, no rescue) (CR). Secondary endpoints included complete control (no emesis, no rescue, mild nausea) (CC) and 5-day CR.
(§2) 161 patients (32 women, 129 men) participated.

[3] = system: cisplatin-induced emesis; experiment: Anti-emetic effect, oral antiemetic one hour before cisplatin; type: in vivo, dogs; conditions: for Emetic Episodes (mean ± SD): observed five hours
Method: The antiemetic effects of intravenously and orally administered palonosetron were assessed in male and female dogs (sexes combined). Antineoplastic agents employed in these experiments included cisplatin (3 mg/kg)), dacarbazine (30 mg/kg), mechlorethamine (0.4 mg/kg) and actinomycin D (0.15 mg/kg). […] Mean numbers of episodes were computed and the statistical significance of differences between treatment groups were determined with Dunnett's t test. Solutions of palonosetron and comparator drugs (ondansetron and granisetron) were prepared in distilled water. Vehicle control groups received distilled water. The observation of potency differential was further seen during an experiment in which oral dose-response relationships of palonosetron and ondansetron were compared in cisplatin-treated dogs. Palonosetron, ondansetron or vehicle control were administered by the oral route one hour prior to the administration of cisplatin. Each animal was observed continuously for five hours following cisplatin administration for the number of emetic episodes.

[4] = Plasma half-life of palonosetron; type: in vivo; conditions: human
[5] = system: cisplatin-induced emesis; experiment: Systemic exposure study: effects on cisplatin-induced emesis; type: in vivo, dogs; conditions: 30 minutes prior to cisplatin, oral, table title says intravenous
Method: An experiment was conducted to study the relationship between plasma concentration of palonosetron and protection of dogs against cisplatin-induced emesis. Groups of dogs received oral doses of palonosetron (0, 100, 316, or 1000 μg/kg) or vehicle control 30 minutes prior to the injection of cisplatin.

[6] = system: cisplatin-induced emesis; experiment: Duration of action in cisplatin-treated dogs; type: in vivo
Method: Mean numbers of episodes were computed and the statistical significance of differences between treatment groups were determined with Dunnett's t test. Solutions of palonosetron and comparator drugs (ondansetron and granisetron) were prepared in distilled water. Vehicle control groups received distilled water.

[7] = system: cisplatin-induced emesis; experiment: Intravenous palonosetron vs ondansetron in cisplatin-treated dogs; type: in vivo; conditions: 0.1 mg/kg intravenous; five-hour period following cisplatin 3.0 mg/kg
Method: The antiemetic effects of intravenously and orally administered palonosetron were assessed in male and female dogs (sexes combined). Antineoplastic agents employed in these experiments included cisplatin (3 mg/kg)), dacarbazine (30 mg/kg), mechlorethamine (0.4 mg/kg) and actinomycin D (0.15 mg/kg). […] Mean numbers of episodes were computed and the statistical significance of differences between treatment groups were determined with Dunnett's t test. Solutions of palonosetron and comparator drugs (ondansetron and granisetron) were prepared in distilled water. Vehicle control groups received distilled water. The therapeutic effects of intravenously and orally administered palonosetron were compared to those of ondansetron and vehicle in cisplatin-treated dogs.

[8] = system: Highly Emetogenic Chemotherapy-Induced Nausea and Vomiting; experiment: Phase II dose-ranging trial, single I.V. palonosetron, efficacy; conditions: for % CR(Day 5): 5-day complete response; for % CR(24 hr): complete response (no emesis, no rescue)
Method: as §1, §2

[9] = system: Actinomycin D-Induced Emesis; experiment: Antagonism of actinomycin D-induced emesis; type: in vivo, dogs; conditions: for Emetic Episodes (mean ± SD): 2 hours prior to actinomycin D 0.15 mg/kg IV, observed 5 hours
[10] = system: Dacarbazine-Induced Emesis; experiment: Antagonism of dacarbazine-induced emesis; type: in vivo, dogs; conditions: for Emetic Episodes (mean ± SD): 2 hours prior to dacarbazine 30.0 mg/kg IV, observed 5 hours
[11] = system: cisplatin-induced emesis; experiment: Reversal of cisplatin-induced emesis, intravenous antiemetic one hour after cisplatin; type: in vivo, dogs; conditions: for Emetic Episodes (mean ± SD): observed five hours
Method: The antiemetic effects of intravenously and orally administered palonosetron were assessed in male and female dogs (sexes combined). Antineoplastic agents employed in these experiments included cisplatin (3 mg/kg)), dacarbazine (30 mg/kg), mechlorethamine (0.4 mg/kg) and actinomycin D (0.15 mg/kg). […] Mean numbers of episodes were computed and the statistical significance of differences between treatment groups were determined with Dunnett's t test. Solutions of palonosetron and comparator drugs (ondansetron and granisetron) were prepared in distilled water. Vehicle control groups received distilled water. In a different study, palonosetron and ondansetron were assessed for their relative abilities to reverse cisplatin-induced emesis. In these experiments dogs received intravenous injections of palonosetron, ondansetron, or vehicle one hour after the intravenous administration of 3.0 mg/kg cisplatin. Each animal was observed continuously for five hours following cisplatin administration for the number of emetic episodes.

[12] = intravenous antiemetic 0.001 mg/kg
[13] = intravenous antiemetic 0.003 mg/kg
[14] = intravenous antiemetic 0.01 mg/kg
[15] = intravenous antiemetic 0.03 mg/kg
[16] = intravenous or oral route, stated for all three antineoplastic agents
[17] = palonosetron 0.3-1 mcg/kg single I.V.
[18] = palonosetron 3 mcg/kg single I.V.
[19] = palonosetron 10 mcg/kg single I.V.
[20] = palonosetron 30 mcg/kg single I.V.
[21] = palonosetron 90 mcg/kg single I.V.

With Cl.O=C1c2cccc3c2[C@H](CCC3)CN1[C@@H]1CN2CCC1CC2 [Palonosetron, (3aS)-2,3,3a,4,5,6-Hexahydro-2-[(S)-1-Azabicyclo[2.2.2]oct-3-yl]2,3,3a,4,5,6-hexahydro-1-oxo-1Hbenz[de]isoquinoline hydrochloride] the “Emetic Episodes (mean ± SD)” value [1, 12] was 7.67 ± 5.05, the “Emetic Episodes (mean ± SD)” value [1, 13] was 6.00 ± 4.29 and the “Emetic Episodes (mean ± SD)” value [1, 14] was 3.00 ± 3.52^d. For the same molecule, the “Emetic Episodes (mean ± SD)” value [1, 15] was 0.17 ± 0.41^d, the “potency relative to ondansetron” value [1, 16] was “at least 10 times” and the “Emetic Episodes (mean ± SD)” value ([1]; oral antiemetic 0.003 mg/kg) was 4.50 ± 3.51^c. For the same molecule, the “Emetic Episodes (mean ± SD)” value ([1]; oral antiemetic 0.01 mg/kg) was 2.83 ± 1.94^d, the “Emetic Episodes (mean ± SD)” value ([1]; oral antiemetic 0.03 mg/kg) was 0.33 ± 0.82^d and the “Emetic Episodes (mean ± SD)” value ([1]; oral antiemetic 0.1 mg/kg) was 0.00 ± 0.00^d. The “adverse events either mild or moderate” value ([2]; both, human) was 83.9%, the “adverse events not attributed to study medication” value ([2]; both, human) was 86.0% and the “adverse events related to study medication: abdominal pain” value ([2]; both, human) was 2.5%. The “adverse events related to study medication: constipation” value ([2]; both, human) was 8.7%, the “adverse events related to study medication: dizziness” value ([2]; both, human) was 2.5% and the “adverse events related to study medication: headache” value ([2]; both, human) was 19.3%. The serious drug-related events [2] was “No serious drug-related events were reported”, the “Emetic Episodes (mean ± SD)” value ([3]; oral dose 0.3 μg/kg one hour before cisplatin) was 12.16 ± 1.94 and the “Emetic Episodes (mean ± SD)” value ([3]; oral dose 1.0 μg/kg one hour before cisplatin) was 12.83 ± 4.70. For the same molecule, the “Emetic Episodes (mean ± SD)” value ([3]; oral dose 3.0 μg/kg one hour before cisplatin) was 16.16 ± 5.11, the “Emetic Episodes (mean ± SD)” value ([3]; oral dose 10.0 μg/kg one hour before cisplatin) was 4.00 ± 3.79^a and the “Emetic Episodes (mean ± SD)” value ([3]; oral dose 30.0 μg/kg one hour before cisplatin) was 2.66 ± 1.75^a. For the same molecule, the “Emetic Episodes (mean ± SD)” value ([3]; oral dose 100.0 μg/kg one hour before cisplatin) was 0.00 ± 0.00^a, the “Emetic Episodes (mean ± SD)” value ([3]; oral dose 300.0 μg/kg one hour before cisplatin) was 1.67 ± 2.04^a and the “minimally effective dose (significant reduction in episodes)” value ([3]; oral, one hour before cisplatin) was 10 µg/kg. The half-life [4] was roughly 40 h, the “Emetic Episodes (mean ± SD)” value ([5]; palonosetron 100 μg/kg) was 1.83 ± 1.60^b and the “Emetic Episodes (mean ± SD)” value ([5]; palonosetron 316 μg/kg) was 4.50 ± 6.83^b. The “Emetic Episodes (mean ± SD)” value ([5]; palonosetron 1000 μg/kg) was 5.67 ± 5.32^b, the “longest pretreatment time before cisplatin with antiemetic activity” value ([6]; 0.1 mg/kg IV) was 10 h and the “Emetic Episodes (mean ± SD)” value ([6]; 0.1 mg/kg IV, 1 hr pre-cisplatin 3.0 mg/kg IV) was 1.33 ± 1.03^b. For the same molecule, the “Emetic Episodes (mean ± SD)” value ([6]; 0.1 mg/kg IV, 2 hr pre-cisplatin 3.0 mg/kg IV) was 2.50 ± 2.43^b, the “Emetic Episodes (mean ± SD)” value ([6]; 0.1 mg/kg IV, 4 hr pre-cisplatin 3.0 mg/kg IV) was 0.33 ± 0.52^b and the “Emetic Episodes (mean ± SD)” value ([6]; 0.1 mg/kg IV, 6 hr pre-cisplatin 3.0 mg/kg IV) was 5.83 ± 4.40^b. The “Emetic Episodes (mean ± SD)” value ([6]; 0.1 mg/kg IV, 8 hr pre-cisplatin 3.0 mg/kg IV) was 9.50 ± 5.50^b, the “Emetic Episodes (mean ± SD)” value ([6]; 0.1 mg/kg IV, 10 hr pre-cisplatin 3.0 mg/kg IV) was 9.83 ± 4.79^b and the “Emetic Episodes (mean ± SD)” value ([6]; 0.1 mg/kg IV, 12 hr pre-cisplatin 3.0 mg/kg IV) was 13.17 ± 6.27. For the same molecule, the “protective effects, pretreatment time prior to cisplatin” value ([6]; earlier experiment, 0.03 mg/kg, compared with ondansetron 0.3 mg/kg IV (as long as seven hours)) was “similarly effective”, the “mean number of emetic episodes” value [7] was 2.20 and the “% CR(Day 5)” value [8, 17] was 17%. The “% CR(24 hr)” value [8, 17] was 24%, the “% CR(Day 5)” value [8, 18] was 17% and the “% CR(24 hr)” value [8, 18] was 46%. For the same molecule, the “% CR(Day 5)” value [8, 19] was 32%, the “% CR(24 hr)” value [8, 19] was 40% and the “% CR(Day 5)” value [8, 20] was 33%. For the same molecule, the “% CR(24 hr)” value [8, 20] was 50* %, the “% CR(Day 5)” value [8, 21] was 20% and the “% CR(24 hr)” value [8, 21] was 46%. The “Emetic Episodes (mean ± SD)” value [9, 12] was 10.00 ± 0.54^c, the “Emetic Episodes (mean ± SD)” value [9, 13] was 10.83 ± 2.04 ^ and the “Emetic Episodes (mean ± SD)” value [9, 14] was 7.17 ± 3.06^d. For the same molecule, the “Emetic Episodes (mean ± SD)” value [9, 15] was 5.17 ± 4.45^d, the “potency relative to ondansetron” value [9, 16] was “at least 10 times” and the “Emetic Episodes (mean ± SD)” value ([9]; oral antiemetic 0.003 mg/kg) was 5.83 ± 1.47^d. The “Emetic Episodes (mean ± SD)” value ([9]; oral antiemetic 0.01 mg/kg) was 6.67 ± 3.83^d, the “Emetic Episodes (mean ± SD)” value ([9]; oral antiemetic 0.03 mg/kg) was 3.33 ± 4.55^d and the “Emetic Episodes (mean ± SD)” value ([9]; oral antiemetic 0.1 mg/kg) was 1.00 ± 1.67^d. The “Emetic Episodes (mean ± SD)” value [10, 12] was 10.17 ± 2.04 ^, the “Emetic Episodes (mean ± SD)” value [10, 13] was 6.67 ± 4.13^ and the “Emetic Episodes (mean ± SD)” value [10, 14] was 1.67 ± 1.37^d. The “Emetic Episodes (mean ± SD)” value [10, 15] was 0.83 ± 1.17^d, the “potency relative to ondansetron” value [10, 16] was “at least 10 times” and the “Emetic Episodes (mean ± SD)” value ([10]; oral antiemetic 0.003 mg/kg) was 12.83 ± 6.68 ^. For the same molecule, the “Emetic Episodes (mean ± SD)” value ([10]; oral antiemetic 0.01 mg/kg) was 6.83 ± 4.92^d, the “Emetic Episodes (mean ± SD)” value ([10]; oral antiemetic 0.03 mg/kg) was 0.33 ± 0.52^d and the “Emetic Episodes (mean ± SD)” value ([10]; oral antiemetic 0.1 mg/kg) was 0.00 ± 0.00^d. The “Emetic Episodes (mean ± SD)” value ([11]; intravenous dose 0.3 μg/kg one hour after cisplatin 3.0 mg/kg IV) was 13.16 ± 6.11 ^, the “Emetic Episodes (mean ± SD)” value ([11]; intravenous dose 1.0 μg/kg one hour after cisplatin 3.0 mg/kg IV) was 7.16 ± 4.26^a and the “Emetic Episodes (mean ± SD)” value ([11]; intravenous dose 3.0 μg/kg one hour after cisplatin 3.0 mg/kg IV) was 4.33 ± 4.03^b. For the same molecule, the “Emetic Episodes (mean ± SD)” value ([11]; intravenous dose 10.0 μg/kg one hour after cisplatin 3.0 mg/kg IV) was 4.50 ± 5.24^b, the “Emetic Episodes (mean ± SD)” value ([11]; intravenous dose 30.0 μg/kg one hour after cisplatin 3.0 mg/kg IV) was 1.33 ± 1.21^b and the “Emetic Episodes (mean ± SD)” value ([11]; intravenous dose 100.0 μg/kg one hour after cisplatin 3.0 mg/kg IV) was 1.67 ± 1.83^b. For the same molecule, the “Emetic Episodes (mean ± SD)” value ([11]; intravenous dose 300.0 μg/kg one hour after cisplatin 3.0 mg/kg IV) was 3.33 ± 3.01^b and the “statistically minimally effective dose level” value ([11]; intravenous, one hour after cisplatin) was 1.0 µg/kg.
